# From PubChem BioAssay (NCI)
#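 Five compound concentrations were applied to cells in 96-well plates for 48 hours; endpoints were derived by simple linear interpolation of the resulting dose-response curve. TGI is the concentration that stops growth completely.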
# Key:
# Assay in all cases: DTP human tumour cell line panel, 48 h
# 786-0 renal = tested on: 786-0 renal
# A498 renal = tested on: A498 renal
# A549 NSCLC = tested on: A549 NSCLC
# ACHN renal = tested on: ACHN renal
# BT-549 breast = tested on: BT-549 breast
# CAKI-1 renal = tested on: CAKI-1 renal
# CCRF-CEM leukemia = tested on: CCRF-CEM leukemia
# COLO 205 colon = tested on: COLO 205 colon
# DU-145 prostate = tested on: DU-145 prostate
# EKVX NSCLC = tested on: EKVX NSCLC
# HCC-2998 colon = tested on: HCC-2998 colon
# HCT-116 colon = tested on: HCT-116 colon
# HCT-15 colon = tested on: HCT-15 colon
# HL-60(TB) leukemia = tested on: HL-60(TB) leukemia
# HOP-62 NSCLC = tested on: HOP-62 NSCLC
# HOP-92 NSCLC = tested on: HOP-92 NSCLC
# HS 578T breast = tested on: HS 578T breast
# HT29 colon = tested on: HT29 colon
# IGROV1 ovarian = tested on: IGROV1 ovarian
# K-562 leukemia = tested on: K-562 leukemia
# KM12 colon = tested on: KM12 colon
# LOX IMVI melanoma = tested on: LOX IMVI melanoma
# M14 melanoma = tested on: M14 melanoma
# MALME-3M melanoma = tested on: MALME-3M melanoma
# MCF7 breast = tested on: MCF7 breast
# MDA-MB-231 breast = tested on: MDA-MB-231 breast
# MDA-MB-435 = tested on: MDA-MB-435
# MDA-N = tested on: MDA-N
# MOLT-4 leukemia = tested on: MOLT-4 leukemia
# NCI-H226 lung = tested on: NCI-H226 lung
# NCI-H23 lung = tested on: NCI-H23 lung
# NCI-H460 lung = tested on: NCI-H460 lung
# NCI/ADR-RES ovarian = tested on: NCI/ADR-RES ovarian
# OVCAR-3 ovarian = tested on: OVCAR-3 ovarian
# OVCAR-4 ovarian = tested on: OVCAR-4 ovarian
# OVCAR-5 ovarian = tested on: OVCAR-5 ovarian
# OVCAR-8 ovarian = tested on: OVCAR-8 ovarian
# PC-3 prostate = tested on: PC-3 prostate
# RPMI-8226 leukemia = tested on: RPMI-8226 leukemia
# RXF 393 renal = tested on: RXF 393 renal
# SF-268 CNS = tested on: SF-268 CNS
# SF-295 CNS = tested on: SF-295 CNS
# SF-539 CNS = tested on: SF-539 CNS
# SK-MEL-2 melanoma = tested on: SK-MEL-2 melanoma
# SK-MEL-28 melanoma = tested on: SK-MEL-28 melanoma
# SK-MEL-5 melanoma = tested on: SK-MEL-5 melanoma
# SK-OV-3 ovarian = tested on: SK-OV-3 ovarian
# SN12C renal = tested on: SN12C renal
# SNB-19 CNS = tested on: SNB-19 CNS
# SNB-75 CNS = tested on: SNB-75 CNS
# SR leukemia = tested on: SR leukemia
# SW-620 colon = tested on: SW-620 colon
# T-47D breast = tested on: T-47D breast
# TK-10 renal = tested on: TK-10 renal
# U251 CNS = tested on: U251 CNS
# UACC-257 melanoma = tested on: UACC-257 melanoma
# UACC-62 melanoma = tested on: UACC-62 melanoma
# UO-31 renal = tested on: UO-31 renal
smiles,measurement,setting,value
CC1(c2ccc(Cl)cc2)CC(c2ccc(Cl)cc2)=C(C#N)C(=C(C#N)C#N)N1 (stereo not drawn),TGI,786-0 renal,24.7 µM
same,TGI,A498 renal,40 µM
same,TGI,A549 NSCLC,53.3 µM
same,TGI,ACHN renal,28 µM
same,TGI,BT-549 breast,42.2 µM
same,TGI,CAKI-1 renal,32.5 µM
same,TGI,CCRF-CEM leukemia,> 100 µM
same,TGI,COLO 205 colon,28.7 µM
same,TGI,DU-145 prostate,28.2 µM
same,TGI,EKVX NSCLC,35.6 µM
same,TGI,HCC-2998 colon,29.5 µM
same,TGI,HCT-116 colon,31.7 µM
same,TGI,HCT-15 colon,32.5 µM
same,TGI,HL-60(TB) leukemia,78.6 µM
same,TGI,HOP-62 NSCLC,25.1 µM
same,TGI,HOP-92 NSCLC,11 µM
same,TGI,HS 578T breast,50.3 µM
same,TGI,HT29 colon,> 100 µM
same,TGI,IGROV1 ovarian,28.8 µM
same,TGI,K-562 leukemia,66.2 µM
same,TGI,KM12 colon,40.3 µM
same,TGI,LOX IMVI melanoma,33.6 µM
same,TGI,M14 melanoma,36.6 µM
same,TGI,MALME-3M melanoma,32.3 µM
same,TGI,MCF7 breast,49.8 µM
same,TGI,MDA-MB-231 breast,55.8 µM
same,TGI,MDA-MB-435,34.7 µM
same,TGI,MDA-N,38.5 µM
same,TGI,MOLT-4 leukemia,60.3 µM
same,TGI,NCI-H226 lung,75.8 µM
same,TGI,NCI-H23 lung,34.7 µM
same,TGI,NCI-H460 lung,73.3 µM
same,TGI,NCI/ADR-RES ovarian,46.5 µM
same,TGI,OVCAR-3 ovarian,24.3 µM
same,TGI,OVCAR-4 ovarian,35.7 µM
same,TGI,OVCAR-5 ovarian,61.9 µM
same,TGI,OVCAR-8 ovarian,34 µM
same,TGI,PC-3 prostate,31.9 µM
same,TGI,RPMI-8226 leukemia,> 100 µM
same,TGI,RXF 393 renal,32.1 µM
same,TGI,SF-268 CNS,22.6 µM
same,TGI,SF-295 CNS,32.6 µM
same,TGI,SF-539 CNS,40.7 µM
same,TGI,SK-MEL-2 melanoma,63.4 µM
same,TGI,SK-MEL-28 melanoma,> 100 µM
same,TGI,SK-MEL-5 melanoma,27.2 µM
same,TGI,SK-OV-3 ovarian,31.2 µM
same,TGI,SN12C renal,37.2 µM
same,TGI,SNB-19 CNS,39.6 µM
same,TGI,SNB-75 CNS,34.7 µM
same,TGI,SR leukemia,> 100 µM
same,TGI,SW-620 colon,> 100 µM
same,TGI,T-47D breast,40 µM
same,TGI,TK-10 renal,32.6 µM
same,TGI,U251 CNS,29.5 µM
same,TGI,UACC-257 melanoma,37.1 µM
same,TGI,UACC-62 melanoma,33.5 µM
same,TGI,UO-31 renal,30.7 µM
